US8748375B2 (Amylin Pharmaceuticals, LLC, priority 2009, dated 2014)
Marks after values point to notes of the source that are not given here.

Experiments:
[1] = in vivo; cited from earlier work
[2] = tested on: insulin-stimulated glycogen synthesis in soleus muscle; assay: Soleus Muscle Assay; assay type: cell-based, rat
Experimental: Concentrations of peptide dissolved in carrier-free buffers are determined by quantitative amino acid analysis, as described therein. The ability of compounds to act as agonists in this assay is determined by measuring EC50 values. […] Similar results were obtained with other agonist compounds listed above.

DIO Levin rats = assay: Example 5: amylin versus pramlintide; assay type: in vivo, rat; details: 76 nmol/kg/day, osmotic mini-pump, 24 days
Experimental: 48 DIO Levin rats (an in-bred model of diet induced obesity) were used in this study. […] Food intake and body weight was measured daily. […] The pair-fed groups were only allowed to consume the daily intakes of their respective drug-treated groups. For body composition, rats were scanned in a rodent NMR before treatment and after sacrifice (at the end of the study), allowing for the ability to calculate changes in carcass fat and protein (e.g., lean tissue).

[3] = adsorption onto glass in liquid form; assay type: physicochemical; details: glass container
Source text: These formulations may then be lyophilized. Surfactants can cause denaturation of protein, both of hydrophobic disruption and by salt bridge separation. Relatively low concentrations of surfactant may exert a potent denaturing activity, because of the strong interactions between surfactant moieties and the reactive sites on proteins. However, judicious use of this interaction can stabilize proteins against interfacial or surface denaturation. Surfactants which could further stabilize the peptide may optionally be present in the range of about 0.001 to 0.3% (w/v) of the total formulation and include polysorbate 80 (i.e., polyoxyethylene(20) sorbitan monooleate), CHAPS® (i.e., 3-[(3-cholamidopropyl) dimethylammonio] 1-propanesulfonate), Brij® (e.g., Brij 35, which is (polyoxyethylene (23) lauryl ether), poloxamer, or another non-ionic surfactant.

[4] = pramlintide 180 mcg TID, 1 day of treatment; cited from earlier work
[5] = tested on: Lean, male Harlan SPRAGUE DAWLEY (HSD) rats; assay: Example 3: chronic amylin infusion, lean rats; assay type: in vivo, rat; design: Fat: dose or concentration left out as unconfirmed
Experimental: (§1) Lean, male Harlan SPRAGUE DAWLEY® (HSD) (Harlan 7012) rats were maintained on “standard chow” (˜5% calories from fat).
(§2) Food intake and body weight were recorded daily (FIGS. 5, 6A, 6B, 7, 8A, and 8B).
(§3) On the final day of the experiment, rats were deeply anaesthetized and sacrificed by cardiac puncture. Plasma triglycerides, glucose, and cholesterol were measured on a COBAS Mira plasma Analyzer (Roche). Plasma leptin and insulin were measured using Linco Research kits. (See, FIGS. 9A-9F and 10A-10E.) Body composition was measured by chemical analysis (Covance Laboratories, Madison, Wis.). Fat pad weights of the epididymal, retroperitoneal, subcutaneous, and perirenal fat pads (all unilateral; analysis only done in DIO animals) were carefully dissected and weighed (FIGS. 12A-12D). In analyzing the tissue biochemistry, […] were powdered under liquid N2 and extracted in chloroform:methanol. 0.6% NaCl solution was then added and the tubes were vortexed, centrifuged, and the organic phase was transferred to glass scintillation vials and dried under a stream of N2. Dried lipids were resuspended and triglycerides were quantified by enzymatic assay (Pointe Scientific, Inc.). Tissue glycogen was measured by the amyloglucosidase method. (See FIGS. 11A-11D.)
(§4) All data are represented as mean±SEM. Analysis of variance (ANOVA) and Bonferroni post-hoc tests were used to test for group differences (SYSTAT® for Windows). A P-value<0.05 was considered significant. Graphs were generated using PRISM® 4 for Windows (Graphpad Software).

[6] = tested on: Retired female breeder rats on high fat diet; assay: Example 4: amylin with prior or concurrent food restriction; assay type: in vivo, rat; details: for Estimated Mean Weight change from treatment: amylin 100 μg/kg/day
Source text: Retired female breeder rats were maintained on a high fat diet (40% fat) for 8 weeks. Prior to drug treatment, rats were either ad-lib fed or food restricted to 95% of their starting body weight.

high fat-fed rats = assay: Example 2: three doses of amylin, food intake and body weight; assay type: in vivo, rat
Source text: (§5) Low fat-fed rats (11% kcal from fat, D12329, Research Diets) were also implanted with pumps delivering vehicle. Food intake and body weight measurements were obtained weekly.

[7] = tested on: High fat-fed male SPRAGUE-DAWLEY rats (DIO); assay: Example 1: chronic infusion, food consumption, body weight, body composition; assay type: in vivo, rat; details: obesity-prone rats, vs vehicle control
Experimental: as §5
Rats were sacrificed by cardiac puncture under anesthesia. Triglyceride levels were measured on a COBAS Mira plasma analyzer (Roche), and leptin and insulin were assayed according to Linco Research rat RIA kits. Body composition was measured by chemical analysis (Covance Laboratories, Madison, Wis.).
All data are represented as mean±SEM. Analysis of variance was used to test for group differences.
The rats were fattened for 10 weeks prior to drug treatment. The high fat-fed rats were designated as obesity-prone (top 50% of weight gainers) or obesity-resistant (bottom 50%) based on the amount of weight gained through week 7.

DIO (Levin) male rats = assay: Example 3: chronic amylin infusion, DIO rats; assay type: in vivo, rat; design: Ash: dose or concentration left out as unconfirmed
Experimental: as §1, §2, §3, §4

[8] = amylin 300 mg/kg/day, 28-day pump
[9] = DIO rats, amylin 300 mg/kg/day, 28-day pump

Compound: CSNLSTCVLGKLSQELHKLQTYPRTNTGSGTP [salmon calcitonin]
- delayed effect, peak levels still maintained at [1]: 240 min

Compound: CC[C@H](C)[C@H](NC(=O)[C@@H]1CCCN1C(=O)CNC(=O)[C@H](Cc1ccccc1)NC(=O)[C@H](CC(N)=O)NC(=O)[C@H](CC(N)=O)NC(=O)[C@H](CO)NC(=O)[C@H](CO)NC(=O)[C@H](Cc1c[nH]cn1)NC(=O)[C@@H](NC(=O)[C@H](CC(C)C)NC(=O)[C@H](Cc1ccccc1)NC(=O)[C@H](CC(N)=O)NC(=O)[C@H](C)NC(=O)[C@H](CC(C)C)NC(=O)[C@H](CCCNC(=N)N)NC(=O)[C@H](CCC(N)=O)NC(=O)[C@@H](NC(=O)[C@H](C)NC(=O)[C@@H]1CSSC[C@H](NC(=O)[C@@H](N)CCCCN)C(=O)N[C@@H](CC(N)=O)C(=O)N[C@@H]([C@@H](C)O)C(=O)N[C@@H](C)C(=O)N[C@@H]([C@@H](C)O)C(=O)N1)[C@@H](C)O)C(C)C)C(=O)N[C@@H](CC(C)C)C(=O)N1CCC[C@H]1C(=O)N1CCC[C@H]1C(=O)N[C@H](C(=O)N[C@@H](CC(N)=O)C(=O)N[C@H](C(=O)NCC(=O)N[C@@H](CO)C(=O)N[C@@H](CC(N)=O)C(=O)N[C@H](C(=O)N[C@@H](Cc1ccc(O)cc1)C(N)=O)[C@@H](C)O)C(C)C)[C@@H](C)O [^25, 28, 29Pro-h-Amylin]
- amylin agonist activity (in words) [2]: act as amylin agonists
- antagonist activity in soleus muscle assay (in words) [2]: negligible antagonist activity
- body composition (DIO Levin rats): favorable effects on body composition
- body weight gain (DIO Levin rats): significant effect on slowing body weight gain
- tendency to adsorb onto glass [3]: does not have a tendency to adsorb onto the glass
- reduction in mean daily caloric intake [4]: ~19%

Compound: amylin: Amylin synthesized by Amylin Pharmaceuticals, Inc. by solid-phase chemistry; species not stated in the examples (KCNTATCATQRLANFLVHSSNNFGAILSSTNVGSNTY; Islet amyloid polypeptide; UniProt P10997 34-70, looked up)
- weight gain compared to vehicle rats [5]: significant reduction in weight gain
- Moisture [5, 8]: 67.57 ± 0.7 %
- Protein [5, 8]: 20.67 ± 0.74%
- Weight [5, 8]: 392.25* g
- Fat ([5]; amylin, 28-day pump): 7.2 ± 1.5 %
- percent body fat ([5]; relative to pair-fed): lower percent body fat relative to pair-fed
- Estimated Mean Weight change from treatment ([6]; Ad-lib prior, Ad-lib during): -21.8 ± 1.4 g
- Estimated Mean Weight change from treatment ([6]; Ad-lib prior, Restricted during): -23.1 ± 2.3 g
- Estimated Mean Weight change from treatment ([6]; Restricted prior, Ad-lib during): -18.2 ± 2.5 g
- Estimated Mean Weight change from treatment ([6]; Restricted prior, Restricted during): -17.1 ± 2.0 g
- body weight ([6]; all treatment conditions): significantly reduced body weight under all treatment conditions
- food intake ([6]; vs vehicle treated counterparts): ate less than their vehicle treated counterparts
- body weight gain (high fat-fed rats; 30 μg/kg/day): reduction in body weight gain
- effects on food intake and body weight (high fat-fed rats; 30, 100, 300 μg/kg/day): dose-dependent
- body composition (DIO Levin rats): favorable effects on body composition
- body weight gain (DIO Levin rats): significant effect on slowing body weight gain
- protein (body composition) [7]: increase in protein
- effect on food intake tapers off after [1]: 60 min
- onset of effect on food intake [1]: ≤ 30 min
- percent body fat (DIO (Levin) male rats; DIO rats): significant decrease in percent body fat
- percent protein (DIO (Levin) male rats; DIO rats): significant preservation or gain in percent protein
- weight gain compared to vehicle rats (DIO (Levin) male rats; DIO rats): significant reduction in weight gain
- Ash (DIO (Levin) male rats; DIO rats, 28-day pump): 1.65 ± 0.34%
- Fat (DIO (Levin) male rats; [9]): 24.3 ± 6.5 %
- Moisture (DIO (Levin) male rats; [9]): 56.68 ± 4.4 %
- Protein (DIO (Levin) male rats; [9]): 18.09 ± 1.68 %
- Weight (DIO (Levin) male rats; [9]): 548.94* g
- muscle glycogen content (DIO (Levin) male rats; rat, in vivo): significantly reduced muscle glycogen content
